Measurements taken from patent US12543736B2, “Herbicidal compositions comprising mesotrione” (BASF SE, priority 2024, dated 2026).

Tests used:
Format in all cases: in vivo
[1] = system: Alopercurus myosuroides; assay: Example 1 post-emergence greenhouse trial, ALOMY; settings: growth stage 13, 21 DAT, g ai/ha: A-1 4, B 62.5
Experimental: In the examples below, using the method of S. R. Colby (1967) “Calculating synergistic and antagonistic responses of herbicide combinations”, Weeds 15, p. 22ff., the value E, which is expected if the activity of the individual active compounds is only additive, was calculated: [formula] • where • X=percent activity using active herbicide A at an application rate a; • Y=percent activity using active herbicide B (e.g. mesotrione) at an application rate b; • E=expected activity (in %) by A+B at application rates a+b. If the value found experimentally is higher than the value E calculated according to Colby, a synergistic effect is present. The culture containers used were plastic pots containing loamy sand with approximately 3.0% of humus as substrate. The seeds of the test plants were sown separately for each species. For the post-emergence treatment, the test plants were grown to a plant height of from 3 to 15 cm, depending on the plant habit, and only then treated with the active compounds which had been suspended or emulsified in water. To this end, the test plants were either sown directly, and grown in the same containers, or they were first grown separately as seedlings and transplanted into the test containers a few days prior to treatment. […] During this time, the plants were tended and their response to the individual treatments was evaluated. […]

[2] = system: Eleusine indica; assay: Example 1 post-emergence greenhouse trial, ELEIN; settings: growth stage 14, 21 DAT
Experimental: In the examples below, using the method of S. R. Colby (1967) “Calculating synergistic and antagonistic responses of herbicide combinations”, Weeds 15, p. 22ff., the value E, which is expected if the activity of the individual active compounds is only additive, was calculated: [formula] • where • X=percent activity using active herbicide A at an application rate a; • Y=percent activity using active herbicide B (e.g. mesotrione) at an application rate b; • E=expected activity (in %) by A+B at application rates a+b. If the value found experimentally is higher than the value E calculated according to Colby, a synergistic effect is present. The culture containers used were plastic pots containing loamy sand with approximately 3.0% of humus as substrate. The seeds of the test plants were sown separately for each species. For the post-emergence treatment, the test plants were grown to a plant height of from 3 to 15 cm, depending on the plant habit, and only then treated with the active compounds which had been suspended or emulsified in water. To this end, the test plants were either sown directly, and grown in the same containers, or they were first grown separately as seedlings and transplanted into the test containers a few days prior to treatment. Depending on the species, the plants were kept at 10-25° C. and 20-35° C., respectively. The test period extended over 2 to 4 weeks. During this time, the plants were tended and their response to the individual treatments was evaluated. Evaluation was carried out using a scale from 0 to 100. 100 means no emergence of the plants, or complete destruction of at least the above-ground parts, and 0 means no damage or normal course of growth. A good herbicidal activity is given at values of at least 70, and very good herbicidal activity is given at values of at least 85. Post-Emergence Application of Herbicide A-1 (A-1) and Mesotrione (B) in Greenhouse Trials Herbicide A-1 (50 g/l) and mesotrione (480 g/l) were, together with addition of 1 v/v % MSO (methylated sed oil) as adjuvant, formulated in water as distribution medium (water volume 200 l/ha) and sprayed with commercial flat fan nozzles.

[3] = system: Digitaria sanguinalis; assay: Example 3 post-emergence field trial, DIGSA; settings: height 10-15 cm; for % herbicidal activity A-1 / % herbicidal activity B: 42 DAT
Experimental: (§1) In the examples below, using the method of S. R. Colby (1967) “Calculating synergistic and antagonistic responses of herbicide combinations”, Weeds 15, p. 22ff., the value E, which is expected if the activity of the individual active compounds is only additive, was calculated: [formula] • where • X=percent activity using active herbicide A at an application rate a; • Y=percent activity using active herbicide B (e.g. mesotrione) at an application rate b; • E=expected activity (in %) by A+B at application rates a+b. If the value found experimentally is higher than the value E calculated according to Colby, a synergistic effect is present. Evaluation was carried out using a scale from 0 to 100. 100 means no emergence of the plants, or complete destruction of at least the above-ground parts, and 0 means no damage or normal course of growth. A good herbicidal activity is given at values of at least 70, and very good herbicidal activity is given at values of at least 85. Post-Emergence Application of Herbicide A-1 (A-1) and Mesotrione (B) in Field Trials Herbicide A-1 (342 g/l) and mesotrione (100 g/l) were, together with addition of 0.5 v/v % MSO (methylated sed oil) as adjuvant, formulated in water as distribution medium (water volume 200 l/ha) and sprayed with commercial flat fan nozzles.

[4] = system: Setaria verticillata; assay: Example 3 post-emergence field trial, SETVE; settings: height 8-16 cm; for % herbicidal activity A-1 / % herbicidal activity B: 42 DAT; for % herbicidal activity: g ai/ha: A-1 18, B 105
Experimental: as §1

[5] = system: Zea mays; assay: Example 4 post-emergence application A-1, B and C-19, ZEAMX; settings: growth stage 12, 21 DAT, g ai/ha: A-1 2, B 50, C-19 30
Experimental: In the examples below, using the method of S. R. Colby (1967) “Calculating synergistic and antagonistic responses of herbicide combinations”, Weeds 15, p. 22ff., the value E, which is expected if the activity of the individual active compounds is only additive, was calculated:
[formula] • where • X=percent activity using active herbicide A at an application rate a; • Y=percent activity using active herbicide B (e.g. mesotrione) at an application rate b; • E=expected activity (in %) by A+B at application rates a+b.
If the value found experimentally is higher than the value E calculated according to Colby, a synergistic effect is present.
Evaluation was carried out using a scale from 0 to 100. 100 means no emergence of the plants, or complete destruction of at least the above-ground parts, and 0 means no damage or normal course of growth. A good herbicidal activity is given at values of at least 70, and very good herbicidal activity is given at values of at least 85.
Post-Emergence Application of Herbicide A-1 (A-1), Mesotrione (B) and Pyroxasulfone (C-19)
Herbicide A-1 (342 g/l), mesotrione (100 g/l) and pyroxasulfone (500 g/l) were, together with addition of 0.5 v/v % MSO (methylated sed oil) as adjuvant, formulated in water as distribution medium (water volume 200 l/ha) and sprayed with commercial flat fan nozzles.

[6] = 7 DAT, g ai/ha: A-1 12.5, B 105
[7] = 21 DAT, g ai/ha: A-1 12.5, B 105

SMILES | % herbicidal activity [1] [%] | % herbicidal activity ([2]; g ai/ha: A-1 2, B 62.5) [%] | % herbicidal activity ([2]; g ai/ha: A-1 4, B 62.5) [%] | % herbicidal activity A-1 ([3]; A-1 12.5 g ai/ha) [%] | % herbicidal activity A-1 ([3]; A-1 18 g ai/ha) [%] | % herbicidal activity [3, 6] [%] | % herbicidal activity ([3]; 7 DAT, g ai/ha: A-1 18, B 105) [%] | % herbicidal activity [3, 7] [%] | % herbicidal activity ([3]; 21 DAT, g ai/ha: A-1 18, B 105) [%] | % herbicidal activity A-1 ([4]; A-1 12.5 g ai/ha (row with B 105)) [%] | % herbicidal activity A-1 ([4]; A-1 12.5 g ai/ha (row with B 210)) [%] | % herbicidal activity ([4]; 7 DAT) [%] | % herbicidal activity ([4]; 21 DAT) [%] | % herbicidal activity [5] [%] | % herbicidal activity B ([3]; B 105 g ai/ha) [%] | % herbicidal activity B ([3]; B 210 g ai/ha) [%] | % herbicidal activity B ([4]; B 105 g ai/ha) [%] | % herbicidal activity B ([4]; B 210 g ai/ha) [%]
CCOC(=O)COc1ccccc1Oc1nc(-n2c(=O)cc(C(F)(F)F)n(C)c2=O)c(F)cc1Cl [A-1, ethyl 2-[2-[[3-chloro-5-fluoro-6-[3-methyl-2,6-dioxo-4-(trifluoromethyl)pyrimidin-1-yl]-2-pyridyl]oxy]phenoxy]acetate] | 85 | 95 | 95 | 65 | 70 | 80 | 80 | 70 | 80 | 60 | 50 | 80 | 75 | 40 | – | – | – | –
CS(=O)(=O)c1ccc(C(=O)C2C(=O)CCCC2=O)c([N+](=O)[O-])c1 [B, mesotrione] | 0 | 50 | 50 | – | – | 50 | 50 | 65 | 65 | – | – | 50 | 35 | 0 | 55 | 70 | 30 | 20
